One data set concerns mouse aorta. Nature of the data set: Uptake of biotinylated peptides into the vessel wall of mouse aorta. The settings on record: biotinylated peptides 100 μM, twenty hours, HRP staining. How it is done: The uptake of AP-Cav into the vessel wall was examined next. A biotinylated version of AP-Cav and AP-Cav-X was synthesized. After twenty hours of incubation with the biotinylated peptides (100 μM) or vehicle, rings were placed in a dish and washed twice with PBS (twenty minutes each time) with light shaking, in order to eliminate the excess of biopeptide that could deposit over the tissue. Then the rings were embedded in OCT medium and cross sections ([…] thickness) were obtained for staining with an avidin-horseradish peroxidase complex and reactivity was detected with 3-amino-9-ethylcarbazole (AEC).

Another data set deals with prostacyclin production. Description: Prostacyclin release from mouse aortic rings (6-keto-PGF1α by EIA). Particulars: ibuprofen 10 μM. As for the experimental part: To further test the specificity of AP-Cav, Ach-induced prostacyclin production was measured. For measurement of prostacyclin release, after twenty hour incubation period, aortic segments (4-5 mm) were placed in sterile 48-well tissue culture plates with 300 μl of KHS at 37° C. for thirty minutes in an incubator. Then aliquots of […] were taken in order to measure the basal release of prostacyclin. Ach (1 μM) was added and the plate was kept in the incubator for an additional thirty minutes. Aliquots were then taken in order to measure the Ach-stimulated release of prostacyclin. This protocol was performed in absence or in presence of ibuprofen (10 μM). The aliquots were frozen and prostacyclin release was measured as the stable breakdown product, 6-keto-PGF1α, by EIA (Amersham).

The next data set concerns isolated mouse aortas. Nature of the data set: Sodium nitroprusside induced (endothelium independent) relaxation of mouse aorta. Particulars: AP 30 μM, twenty hours; SNP 10 μM.
For another data set, the system named is isolated mouse aorta. Nature of the data set: Ach-induced relaxation of isolated mouse aortic rings (organ bath). The settings on record: AP alone 30 μM, twenty hours incubation. As for the experimental part: For isolated mouse aortic rings preparations, male C57 black mice (5-7 weeks of age) were anesthetized with methoxyflurane and sacrificed by exsanguination. The thoracic aorta was dissected and cut into cylindrical segments of three millimeters in length. Using a sterile 48-well tissue culture plate, each ring was incubated in a total volume of one ml with either peptides or vehicle (DMSO) diluted in DMEM supplemented with penicillin (100 units/ml), streptomycin (100 μg/ml) and L-glutamine (1 mM). The plate was incubated with 5% CO2. Following incubation with the peptides (one, six, twelve or twenty hours), rings were washed in oxygenated (95% O2-5% CO2) Krebs-Henseleit bicarbonate buffer solution (KHS) of the following composition (NaCl—118.3 mmol/L, KCl—4.7 mmol/L, CaCl2—2.5 mmol/L, MgSO4—1.2 mmol/L, KH2PO4—1.2 mmol/L, NaHCO3—25 mmol/L, glucose—5.6 mmol/L at 37° C. with ibuprofen (10 μM). The rings were suspended by two tungsten wires ([…] thickness) inserted into the lumen and mounted in a vessel myograph system (five ml chamber, Kent Scientific). The mouse aortas were submitted to a resting tension of 1.5 grams and isometric tension was recorded using a force transducer coupled to a MacLab data acquisition system. […] In some experiments concentration-response curves to the contractile effects of PE were monitored.

Data set [1] in a line: Systemic arterial blood pressure and heart rate in mice. It counts as in vivo, mouse.
[2] abbreviates: conditions of the edema study, n=4 mice.

Entries after “also recorded” stand apart in the source; their conditions may differ. Ends that are not written are not given here. Peptide text beside a SMILES is read from it.

Consider `CC[C@H](C)[C@H](NC(=O)CNC(=O)[C@H](Cc1c[nH]c2ccccc12)NC(=O)[C@H](CCCCN)NC(=O)[C@H](CCCCN)NC(=O)[C@H](Cc1c[nH]c2ccccc12)NC(=O)[C@H](CCCCN)NC(=O)[C@H](CCSC)NC(=O)[C@H](CCCNC(=N)N)NC(=O)[C@H](CCCNC(=N)N)NC(=O)[C@H](CC(N)=O)NC(=O)[C@H](CCC(N)=O)NC(=O)[C@H](Cc1ccccc1)NC(=O)[C@H](Cc1c[nH]c2ccccc12)NC(=O)[C@@H](NC(=O)[C@H](CCCCN)NC(=O)[C@@H](NC(=O)[C@H](CCC(N)=O)NC(=O)[C@H](CCCNC(=N)N)NC(=O)CCCCCNC(=O)CCCC[C@@H]1SC[C@@H]2NC(=O)N[C@@H]21)[C@@H](C)CC)[C@@H](C)CC)C(=O)N[C@@H](CC(=O)O)C(=O)N[C@@H](CCCCN)C(=O)N[C@@H](C)C(=O)N[C@@H](Cc1ccccc1)C(=O)N[C@@H](Cc1ccccc1)C(=O)N[C@H](C(=O)N[C@H](C(=O)N[C@@H](CO)C(=O)N[C@H](C(=O)N[C@H](C(=O)N[C@H](C(=O)N[C@@H](Cc1ccc(O)cc1)C(=O)N[C@@H](CCCCN)C(=O)N[C@@H](Cc1c[nH]c2ccccc12)C(=O)N[C@@H](Cc1ccccc1)C(=O)N[C@@H](CCCNC(=N)N)C(=O)N[C@@H](Cc1ccc(O)cc1)C(=O)O)[C@@H](C)O)C(C)C)[C@@H](C)O)[C@@H](C)O)[C@@H](C)O` [Biot-AP-Cav-X] (HELM PEPTIDE1{[O=C1N[C@H]2[C@H](CS[C@H]2CCCCC(=O)[*:2])N1].[O=C(CCCCCN[*:1])[*:2]].R.Q.I.K.I.W.F.Q.N.R.R.M.K.W.K.K.W.G.I.D.K.A.F.F.T.T.S.T.V.T.Y.K.W.F.R.Y}$$$$V2.0; N-terminus and C-terminus assumed), for which, in the data set on mouse aorta, the “uptake into the vessel wall” value is “uptake of both AP-Cav and AP-Cav-X into the endothelium and adventitial lining of the vessel”.
As for `CC[C@H](C)[C@H](NC(=O)CNC(=O)[C@H](CC(=O)O)NC(=O)[C@H](CCCCN)NC(=O)[C@H](CCCCN)NC(=O)[C@H](Cc1c[nH]c2ccccc12)NC(=O)[C@H](CCCCN)NC(=O)[C@H](CCSC)NC(=O)[C@H](CCCNC(=N)N)NC(=O)[C@H](CCCNC(=N)N)NC(=O)[C@H](CC(N)=O)NC(=O)[C@H](CCC(N)=O)NC(=O)[C@H](Cc1ccccc1)NC(=O)[C@H](Cc1c[nH]c2ccccc12)NC(=O)[C@@H](NC(=O)[C@H](CCCCN)NC(=O)[C@@H](NC(=O)[C@H](CCC(N)=O)NC(=O)[C@H](CCCNC(=N)N)NC(=O)CCCCCNC(=O)CCCC[C@@H]1SC[C@@H]2NC(=O)N[C@@H]21)[C@@H](C)CC)[C@@H](C)CC)C(=O)N[C@@H](Cc1c[nH]c2ccccc12)C(=O)N[C@@H](CCCCN)C(=O)N[C@@H](C)C(=O)N[C@@H](CO)C(=O)N[C@@H](Cc1ccccc1)C(=O)N[C@H](C(=O)N[C@H](C(=O)N[C@@H](Cc1ccccc1)C(=O)N[C@H](C(=O)N[C@H](C(=O)N[C@H](C(=O)N[C@@H](CCCCN)C(=O)N[C@@H](Cc1ccc(O)cc1)C(=O)N[C@@H](Cc1c[nH]c2ccccc12)C(=O)N[C@@H](Cc1ccccc1)C(=O)N[C@@H](Cc1ccc(O)cc1)C(=O)N[C@@H](CCCNC(=N)N)C(=O)O)[C@@H](C)O)C(C)C)[C@@H](C)O)[C@@H](C)O)[C@@H](C)O` [Biot-AP-Cav] (HELM PEPTIDE1{[O=C1N[C@H]2[C@H](CS[C@H]2CCCCC(=O)[*:2])N1].[O=C(CCCCCN[*:1])[*:2]].R.Q.I.K.I.W.F.Q.N.R.R.M.K.W.K.K.D.G.I.W.K.A.S.F.T.T.F.T.V.T.K.Y.W.F.Y.R}$$$$V2.0; N-terminus and C-terminus assumed), in the data set on mouse aorta, the “uptake into the vessel wall” value is “uptake of both AP-Cav and AP-Cav-X into the endothelium and adventitial lining of the vessel”.
As to `CC(C)Cc1ccc(C(C)C(=O)O)cc1` (centres unmarked) [ibuprofen], the “Ach-induced prostacyclin production (6-keto-PGF1α)” value with prostacyclin production was “abolished”.
Turning to “AP: Antennapedia internalization sequence (RQIKIWFQNRRMKWKK), SEQ ID NO: 10, alone (Drosophila melanogaster; DOMAIN (1)..(16) Homeodomain, internalization sequence)”, in the data set with isolated mouse aortas, the “effect on vasorelaxant properties of sodium nitroprusside” value is listed as “had no effect”. In addition, the “effect on Ach-induced relaxation” value in the data set with isolated mouse aorta is given as “did not influence Ach-induced relaxation; also recorded: does not affect Ach induced relaxations”.
For the molecule “RQIKIWFQNRRMKWKKDGIWKASFTTFTVTKYWFYR [AP-Cav]”, in data set [1] (setting [2]), the heart rate came out at 320±29 beats per minute and the “systemic arterial blood pressure” value turned out to be 80±7 mm Hg. In data set [1] (preliminary evidence), the “effect on blood pressure when delivered in vivo” value is given as “do not increase blood pressure”.

(Values after patent US7494976B2, “Caveolin peptides and their use as therapeutics” (Yale University, priority 2000, dated 2009).)
